Assay results from patent publication US11780826B2 (Amgen Inc., priority 2017, dated 2023).

What was measured:
[1] = system: Bovine cardiac myofibrils; assay: In vitro model of dose-dependent myofibril ATPase modulation (AC1.4, pyruvate kinase/lactate dehydrogenase-coupled ATPase assay at pCa25); type: biochemical; conditions: concentration at which ATPase activity was 1.4-fold higher than the bottom of the dose curve, mean of a minimum of two independent tests
Outline: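 Absorbance at 340 nm tracked ATP hydrolysis through pyruvate kinase/lactate dehydrogenase coupling (0.5 mM NADH, 1.5 mM PEP). Myofibrils from detergent-homogenized bovine heart, 1 mM ATP, pH 6.80, EGTA/CaCl2 buffering. Dose-response curves fitted with a four-parameter Hill equation.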

Male CD rats [2] = assay: Echocardiography/ultrasound protocol: fractional shortening (% FS) during intravenous infusion, MEE; type: in vivo; set-up: unit not given here; conditions: rat, formulation 40% HPbCD, corrected for rat plasma protein binding
Procedure: (§1) Formulations: A compound as disclosed herein and water were admixed together. Either 30% wt/vol or 40% wt/vol of hydroxypropyl beta-cyclodextrin (HPBCD) was added and the mixture stirred until dissolved.
(§2) Echocardiography/ultrasound protocol: Serial echocardiography was conducted with the aid of an imaging system suitable for rodent cardiac ultrasound. Male CD rats (6-10 weeks of age; 6-12 animals per group) were cannulated with a jugular vein catheter to enable delivery of test article by intravenous infusion. […] An imaging probe was fixed in position to acquire short axis (SAX), motion (M)—mode images of the left cardiac ventricle at the level of the papillary muscles. Baseline data was acquired prior to initiating test article delivery. Test article (compound as disclosed herein in a HPBCD formulation), or vehicle control, was delivered with the aid of an infusion pump connected to the jugular vein catheter. Infusion rate of test article was increased at 15 min intervals, to a maximum of 5 mL/kg/hr. Ultrasound images were acquired at 5 min intervals. Additionally whole blood (not exceeding 10 uL) was collected via a tail nick at the same 5 min intervals for subsequent exposure determination.
(§3) Whole blood samples were analyzed by protein precipitation and liquid chromatography tandem mass spectrometry (LC-MS/MS) using multiple reaction monitoring (MRM) in positive ionization mode. The lower limit of quantitation (LLOQ) in the assay was 1 ng/mL and the upper limit of quantitation (ULOQ) was 10,000 ng/mL.
Offline data analysis of the SAX M-mode ultrasound images was conducted to derive measures of left ventricular end diastolic diameter (LVEDD), left ventricular end systolic diameter (LVESD) and subsequent calculation of fractional shortening (% FS) using the following formula: % FS=((LVEDD−LVESD)/LVEDD)*100. Minimally efficacious exposure (MEE) was defined as the exposure at which a 10% increase in % FS from baseline was observed. The MEE was derived by plotting assayed exposures against % FS and using non-linear curve fitting (log(exposure) vs. % FS; variable slope, 4 parameters). Response to vehicle at each time point was averaged and all test article responses were normalized to baseline and subtracted from time matched (averaged) vehicle responses.

Male CD rats [3] = assay: Pressure-volume loop (PV Loop) protocol (invasive hemodynamics): ejection fraction (% EF) during intravenous infusion, MEE; type: in vivo; set-up: unit not given here; conditions: exposure at 10% increase in % EF from baseline, rat, corrected for rat plasma protein binding
Procedure: as §1, §2, §3
Pressure-volume loop (PV Loop) protocol (invasive hemodynamics): Left ventricular catheterization with a pressure-volume transducing catheter was applied as an alternative method to derive pharmacodynamic endpoints. A pressure volume conductance catheter was inserted via the left carotid artery and advanced into the left ventricle. The electrical signal emitted from the volume catheter was used to derive measures of relative volume at 5 min intervals. From these measures, left ventricular end diastolic volume (LVEDV) and left ventricular end systolic volume (LVESV) were derived. Ejection fraction was then derived using the following formula: % EF=((LVEDV−LVESV)/LVEDV)*100. Minimally efficacious exposure (MEE) was defined as the exposure at which a 10% increase in % EF from baseline was observed. The MEE was derived by plotting assayed exposures against % EF and using non-linear curve fitting (log(exposure) vs. % EF; variable slope, 4 parameters). Response to vehicle at each time point was averaged and all test article responses were normalized to baseline and subtracted from time matched (averaged) vehicle responses. Animal preparation, vehicle/test article delivery and blood sampling for exposure determination was as described in Echocardiography/ultrasound protocol.

Question: Which results are given for CS(=O)(=O)c1cccc(C(=O)N2CCC[C@@H]2C(=O)N[C@@H](c2ccc(C(F)(F)F)cc2F)C2CC2)c1 [Example 364, (R)—N—((R)-cyclopropyl(2-fluoro-4-(trifluoromethyl)phenyl)methyl)-1-(3-(methylsulfonyl)benzoyl)pyrrolidine-2-carboxamide]?
Answer: AC1.4 [1]: 1.04 µM; MEE* (unbound), minimally efficacious exposure (Male CD rats [2]; Echocardiography and PV Loop (both protocols named for this value)): 0.27

Question: For N#CC1CN(S(=O)(=O)N2CCC[C@H](C(=O)N3CCC[C@@H]3C(=O)NCc3cc(F)cc(F)c3)C2)C1 [Example 287, 1-(((3S)-1-((3-cyano-1-azetidinyl)sulfonyl)-3-piperidinyl)carbonyl)-N-(3,5-difluorobenzyl)-D-prolinamide], which AC1.4 [1] is on record?
Answer: 0.7212 µM

Question: And the “MEE* (unbound), minimally efficacious exposure” value (“MEE* (unbound)” for short) (Male CD rats [3]; formulation 40% HPbCD)?
Answer: 0.47

Question: Which AC1.4 [1] does the source give for C[C@@H](NC(=O)[C@H]1CCCN1C(=O)[C@H]1CCCN(S(=O)(=O)N2CC(C#N)C2)C1)c1ccc(F)cc1F [Example 325, 1-(((3S)-1-((3-cyano-1-azetidinyl)sulfonyl)-3-piperidinyl)carbonyl)-N-((1R)-1-(2,4-difluorophenyl)ethyl)-D-prolinamide] here?
Answer: 0.8883 µM

Question: What about the “MEE* (unbound)” value (Male CD rats [3]; formulation 40% HPbCD) of the same compound?
Answer: 0.41

Question: Which AC1.4 [1] does the source give for C[C@@H](NC(=O)[C@H]1CCCN1C(=O)[C@H]1CCCN(S(=O)(=O)N2CC(C#N)C2)C1)c1ccc(F)c(F)c1 [Example 301, 1-(((3S)-1-((3-cyano-1-azetidinyl)sulfonyl)-3-piperidinyl)carbonyl)-N-((1R)-1-(3,4-difluorophenyl)ethyl)-D-prolinamide] here?
Answer: 0.7943 µM

Question: And the “MEE* (unbound)” value (Male CD rats [3]; formulation 40% HPbCD)?
Answer: 0.19

Question: Which results are given for CS(=O)(=O)c1cc(C(=O)N2[C@@H](C(=O)N[C@@H](c3cc(F)c(Cl)cc3F)C3CC3)C[C@H]3C[C@H]32)ccn1 [Example 314, (1R,3R,5R)—N—((R)-(4-chloro-2,5-difluorophenyl)(cyclopropyl)methyl)-2-(2-(methylsulfonyl)isonicotinoyl)-2-azabicyclo[3.1.0]hexane-3-carboxamide]?
Answer: AC1.4 [1]: 0.846 µM; MEE* (unbound), minimally efficacious exposure (Male CD rats [2]; Echocardiography, exposure at 10% increase in % FS from baseline): 0.16

Question: How did the AC1.4 [1] turn out when CS(=O)(=O)c1cccc(C(=O)N2CCCC[C@@H]2C(=O)N[C@@H](c2cc(F)c(Cl)cc2F)C2CC2)c1 [Example 113, (2R)-N-((R)-(4-chloro-2,5-difluorophenyl)(cyclopropyl)methyl)-1-(3-(methylsulfonyl)benzoyl)-2-piperidinecarboxamide] was run?
Answer: 0.1763 µM

Question: What about the “MEE* (unbound)” value (Male CD rats [3]; formulation 40% HPbCD) of the same compound?
Answer: 0.04

Question: How did the AC1.4 [1] turn out when N#CC1CN(S(=O)(=O)N2CCC[C@H](C(=O)N3CCC[C@@H]3C(=O)NCc3ccc(C(F)F)cc3)C2)C1 [Example 261, 1-(((3S)-1-((3-cyano-1-azetidinyl)sulfonyl)-3-piperidinyl)carbonyl)-N-(4-(difluoromethyl)benzyl)-D-prolinamide] was run?
Answer: 0.6461 µM

Question: And the “MEE* (unbound)” value (Male CD rats [3]; formulation 40% HPbCD)?
Answer: 0.16

Question: For N#CC1CN(S(=O)(=O)N2CCC[C@H](C(=O)N3CCC[C@@H]3C(=O)NCc3ccc(C(F)(F)F)cc3)C2)C1 [Example 67, 1-(((3S)-1-((3-cyano-1-azetidinyl)sulfonyl)-3-piperidinyl)carbonyl)-N-(4-(trifluoromethyl)benzyl)-D-prolinamide], which AC1.4 [1] is on record?
Answer: 0.07786 µM

Question: And the “MEE* (unbound)” value (Male CD rats [3]; formulation 40% HPbCD pH 4 NaOH)?
Answer: 1.05

Question: With N#CC1CN(S(=O)(=O)N2CCC[C@H](C(=O)N3CCC[C@@H]3C(=O)NCc3ccc(Cl)c(Cl)c3)C2)C1 [Example 91, 1-(((3S)-1-((3-cyano-1-azetidinyl)sulfonyl)-3-piperidinyl)carbonyl)-N-(3,4-dichlorobenzyl)-D-prolinamide] as the compound, how does the AC1.4 [1] read?
Answer: 0.1384 µM

Question: What about the “MEE* (unbound)” value (Male CD rats [3]; formulation 40% HPbCD) of the same compound?
Answer: 0.04

Question: With C[C@@H](NC(=O)[C@H]1CCCN1C(=O)[C@H]1CCCN(S(=O)(=O)N2CC(C#N)C2)C1)c1ccc(Cl)cc1 [Example 135, N-((1R)-1-(4-chlorophenyl)ethyl)-1-(((3S)-1-((3-cyano-1-azetidinyl)sulfonyl)-3-piperidinyl)carbonyl)-D-prolinamide] as the compound, how does the AC1.4 [1] read?
Answer: 0.2215 µM

Question: What about the “MEE* (unbound)” value (Male CD rats [3]; formulation 40% HPbCD) of the same compound?
Answer: 0.05

Question: For N#CC1CN(S(=O)(=O)N2CCN[C@H](C(=O)N3CCC[C@@H]3C(=O)NCc3ccc(C(F)(F)F)cc3F)C2)C1 [Example 200, 1-(((2S)-4-((3-cyano-1-azetidinyl)sulfonyl)-2-piperazinyl)carbonyl)-N-(2-fluoro-4-(trifluoromethyl)benzyl)-D-prolinamide], which AC1.4 [1] is on record?
Answer: 0.4083 µM

Question: What about the “MEE* (unbound)” value (Male CD rats [3]; formulation 40% HPbCD) of the same compound?
Answer: 1.02

Question: How did the AC1.4 [1] turn out when CS(=O)(=O)c1cccc(C(=O)N2C[C@@H](F)C[C@@H]2C(=O)N[C@@H](c2ccc(C(F)(F)F)cc2F)C2CC2)c1 [Example 402, (2R,4S)—N—((R)-cyclopropyl(2-fluoro-4-(trifluoromethyl)phenyl)methyl)-4-fluoro-1-(3-(methylsulfonyl)benzoyl)pyrrolidine-2-carboxamide] was run?
Answer: 1.381 µM

Question: What about the “MEE* (unbound)” value (Male CD rats [3]; formulation 40% HPbCD) of the same compound?
Answer: 0.18

Question: Which AC1.4 [1] does the source give for CS(=O)(=O)c1cccc(C(=O)N2CCC[C@@H]2C(=O)N[C@@H]2CCc3cc(C(F)(F)F)ccc32)c1 [Example 742, 1-(3-(methylsulfonyl)benzoyl)-N-((1R)-5-(trifluoromethyl)-2,3-dihydro-1H-inden-1-yl)-D-prolinamide] here?
Answer: 7.2 µM

Question: Which AC1.4 [1] does the source give for O=C(N[C@@H](c1ccc(C(F)(F)F)cc1F)C1CC1)[C@H]1CCCN1C(=O)c1cccc(S(=O)(=O)CC(F)(F)F)c1 [Example 281, N-((R)-cyclopropyl(2-fluoro-4-(trifluoromethyl)phenyl)methyl)-1-(3-((2,2,2-trifluoroethyl)sulfonyl)benzoyl)-D-prolinamide] here?
Answer: 0.7104 µM

Question: Which AC1.4 [1] does the source give for CC(C)C[C@@H](NC(=O)[C@H]1CCCN1C(=O)c1cccc(S(=O)(=O)N2CC(C#N)C2)c1)c1ccc(C(F)(F)F)cc1 [Example 45, 1-(3-((3-cyano-1-azetidinyl)sulfonyl)benzoyl)-N-((1R)-3-methyl-1-(4-(trifluoromethyl)phenyl)butyl)-D-prolinamide] here?
Answer: 0.0435 µM

Question: With CCNc1ccc(S(C)(=O)=O)cc1C(=O)N1CCC[C@@H]1C(=O)N[C@@H](c1ccc(C(F)(F)F)cc1F)C1CC1 [Example 79, N-((R)-cyclopropyl(2-fluoro-4-(trifluoromethyl)phenyl)methyl)-1-(2-(ethylamino)-5-(methylsulfonyl)benzoyl)-D-prolinamide] as the compound, how does the AC1.4 [1] read?
Answer: 0.104 µM

Question: With N#CC1CN(S(=O)(=O)c2cccc(C(=O)N3CCC[C@@H]3C(=O)NCc3ccc(C(F)(F)F)cc3F)c2)C1 [Example 42, 1-((3-((3-cyano-1-azetidinyl)sulfonyl)phenyl)carbonyl)-N-(2-fluoro-4-(trifluoromethyl)benzyl)-D-prolinamide] as the compound, how does the AC1.4 [1] read?
Answer: 0.04293 µM

Question: With N#C[C@H]1C[C@@H](S(=O)(=O)N2CCC[C@H](C(=O)N3CCC[C@@H]3C(=O)NCc3ccc(C(F)(F)F)cc3)C2)C1 [Example 59, 1-(((3S)-1-((cis-3-cyanocyclobutyl)sulfonyl)-3-piperidinyl)carbonyl)-N-(4-(trifluoromethyl)benzyl)-D-prolinamide] as the compound, how does the AC1.4 [1] read?
Answer: 0.06495 µM

Question: Which AC1.4 [1] does the source give for O=C(N[C@@H](c1cc(F)c(Cl)cc1F)C1COC1)[C@H]1C[C@H]2C[C@H]2N1C(=O)c1cc(C(F)(F)F)ncn1 [Example 487, (1R,3R,5R)-N-((R)-(4-chloro-2,5-difluorophenyl)(3-oxetanyl)methyl)-2-((6-(trifluoromethyl)-4-pyrimidinyl)carbonyl)-2-azabicyclo[3.1.0]hexane-3-carboxamide] here?
Answer: 2.218 µM
